Data set [1] concerns RAW264.7. The experiment in a line: Inhibition of LPS-induced NO production in mouse RAW264.7 cells after 24 hrs by Griess reaction. The following applies: RAW264.7, 24 h. The data set is classed as functional, cell-based. Background: Nitrite, measured by Griess reagent, commonly stands in for NO production.
Data set [2] concerns RAW264.7. The experiment in a line: Cytotoxicity against mouse RAW264.7 cells after 24 hrs. It counts as cell-based. The note with it: raw264.7, 24 h.

The term IC50 denotes the concentration at which inhibition is half-maximal. A high value points to lower potency. On to `C[C@@]12CC(=O)[C@H]3C[C@]1(O)O[C@H](O2)[C@@H]3COC(=O)c1ccccc1` [PAEONIFLORIGENONE], for which the IC50 in data set [1] amounted to 6.87 µM. Further, the Activity result in data set [2] is on record as “Non-toxic”. Turning to `C[C@@]12C[C@@]3(O)O[C@@H](O1)[C@]1(COC(=O)c4ccc(O)cc4)[C@H]3C[C@@]12O[C@@H]1O[C@H](CO)[C@@H](O)[C@H](O)[C@H]1O` [OXYPAEONIFLORIN], in data set [2], the Activity result was “Non-toxic”. On to `CO[C@@H]1O[C@@]2(C)CC(=O)[C@@H]3C[C@@]2(O[C@@H]2O[C@H](CO)[C@@H](O)[C@H](O)[C@H]2O)[C@]13COC(=O)c1ccc(O)cc1`, for which the Activity entry in data set [2] is “Non-toxic”. In data set [1], `C[C@@]12C[C@@]3(O)O[C@@H](O1)[C@]1(COC(=O)c4ccccc4)[C@H]3C[C@@]12O[C@@H]1O[C@H](CO)[C@@H](O)[C@H](O)[C@H]1O` [PAEONIFLORIN] returned an IC50 of over 100 µM. In addition, in data set [2], the Activity entry is “Non-toxic”. Compound `CCCCO[C@H]1O[C@@]2(C)CC(=O)[C@@H]3C[C@@]2(O[C@@H]2O[C@H](CO)[C@@H](O)[C@H](O)[C@H]2O)[C@]13COC(=O)c1ccccc1` came in with an IC50 in data set [1] of over 100 µM. The Activity entry in data set [2] was “Non-toxic”. In data set [1], `C[C@@]12C[C@@]3(O)O[C@@H](O1)[C@]1(COC(=O)c4ccc(O)cc4)[C@H]3C[C@@]12O[C@@H]1O[C@H](COC(=O)c2cc(O)c(O)c(O)c2)[C@@H](O)[C@H](O)[C@H]1O` [GALLOYLOXYPAEONIFLORIN] showed an IC50 of over 100 µM. The Activity entry in data set [2] is on record as “Non-toxic”.

In data set [1], `COc1ccc(C(=O)OC[C@H]2O[C@@H](O[C@]34C[C@@H]5[C@@]3(COC(=O)c3ccc(O)cc3)[C@H]3O[C@]5(O)C[C@]4(C)O3)[C@H](O)[C@@H](O)[C@@H]2O)cc1` [MOUDANPIOSIDE B] returned an IC50 of over 100 µM. Further, the Activity entry in data set [2] is reported as “Non-toxic”. The compound `COc1cc(C(=O)OC[C@H]2O[C@@H](O[C@@]34C[C@H]5[C@@]3(CO)[C@H]3O[C@]5(O)C[C@]4(C)O3)[C@H](O)[C@@H](O)[C@@H]2O)ccc1O` [MUDANPIOSIDE E] registered an IC50 in data set [1] of over 100 µM. Moreover, in data set [2], the Activity result is listed as “Non-toxic”. The like results for `CCCCO[C@]12C[C@]3(C)OC(O1)[C@]1(COC(=O)c4ccccc4)[C@@H]2C[C@@]31O[C@@H]1O[C@H](CO)[C@@H](O)[C@H](O)[C@H]1O` were, in that order, over 100 µM and “Non-toxic”. Compound `CO[C@]12C[C@]3(C)O[C@H](O1)[C@]1(COC(=O)c4ccc(O)cc4)[C@H]2C[C@@]13O[C@@H]1O[C@H](COC(=O)c2cc(O)c(O)c(O)c2)[C@@H](O)[C@H](O)[C@H]1O` gave an IC50 in data set [1] of over 100 µM. In addition, the Activity entry in data set [2] is recorded as “Non-toxic”. For `CO[C@]12C[C@]3(C)O[C@H](O1)[C@]1(COC(=O)c4ccccc4)[C@@H]2C[C@]13O[C@@H]1O[C@H](CO)[C@@H](O)[C@H](O)[C@H]1O`, the IC50 in data set [1] is over 100 µM. Moreover, in data set [2], the Activity result was “Non-toxic”. In data set [1], `C[C@@]12C[C@@]3(O)O[C@@H](O1)[C@]1(COC(=O)c4ccc(O)cc4)[C@@H]3C[C@]12O[C@@H]1O[C@H](CO)[C@@H](O)[C@H](O)[C@H]1O` [OXYPAEONIFLORIN] showed a concentration for half-maximal inhibition (IC50) of over 100 µM. Regarding `CC1=CC(=O)[C@@H]2C[C@@]1(O[C@@H]1O[C@H](CO)[C@@H](O)[C@H](O)[C@H]1O)[C@@]2(C)CO` [MOUDANPIOSIDE F], the IC50 in data set [1] worked out at 12.4 µM. Besides, the Activity result in data set [2] was “Non-toxic”. For the compound `CCCCO[C@H]1O[C@@]2(C)CC(=O)[C@@H]3C[C@@]2(O[C@@H]2O[C@H](CO)[C@@H](O)[C@H](O)[C@H]2O)[C@]13COC(=O)c1ccc(O)cc1`, the IC50 in data set [1] is over 100 µM. Besides, the Activity entry in data set [2] is “Non-toxic”. `CO[C@H]1O[C@@]2(C)CC(=O)[C@H]3C[C@]2(O[C@@H]2O[C@H](COC(=O)c4ccccc4)[C@@H](O)[C@H](O)[C@H]2O)[C@]13COC(=O)c1ccccc1` [PAEONIDANIN A] gave an IC50 in data set [1] of over 100 µM. The Activity entry in data set [2] is listed as “Non-toxic”.

In the case of `C[C@@]12C[C@@]3(OS(=O)O)O[C@@H](O1)[C@]1(COC(=O)c4ccc(O)cc4)[C@H]3C[C@@]12O[C@@H]1O[C@H](CO)[C@@H](O)[C@H](O)[C@H]1O` [OXYPAEONIFLORIN SULFONATE], in data set [1], the concentration for half-maximal inhibition (IC50) is over 100 µM. Besides, in data set [2], the Activity result is reported as “Non-toxic”.

Regarding `COc1cc(C(=O)OC[C@H]2O[C@@H](O[C@]34C[C@@H]5[C@@]3(COC(=O)c3ccccc3)[C@H]3O[C@]5(O)C[C@]4(C)O3)[C@H](O)[C@@H](O)[C@@H]2O)ccc1O` [MUDANPIOSIDE J], the IC50 in data set [1] was over 100 µM. In data set [2], the Activity entry was “Non-toxic”. For `CCCCO[C@]12C[C@]3(C)O[C@H](O1)[C@]1(COC(=O)c4ccc(O)cc4)[C@H]2C[C@@]13O[C@@H]1O[C@H](CO)[C@@H](O)[C@H](O)[C@H]1O`, in that order: over 100 µM and “Non-toxic”.

`COc1ccc(C(=O)OC[C@]23[C@H]4O[C@]5(O)C[C@](C)(O4)[C@@]2(O[C@@H]2O[C@H](CO)[C@@H](O)[C@H](O)[C@H]2O)C[C@H]35)cc1` [MUDANPIOSIDE D] showed an IC50 in data set [1] of over 100 µM. Further, in data set [2], the Activity entry is given as “Non-toxic”. The like results for `C[C@@]12C[C@@]3(O)O[C@@H](O1)[C@]1(CO)[C@H]3C[C@@]12O[C@@H]1O[C@H](CO)[C@@H](O)[C@H](O)[C@H]1O` were, in that order, 74.2 µM and “Non-toxic”. `CO[C@H]1O[C@@]2(C)CC(=O)[C@@H]3C[C@@]2(O[C@@H]2O[C@H](CO)[C@@H](O)[C@H](O)[C@H]2O)[C@]13COC(=O)c1ccc(O)cc1` [OXYPAEONIDANIN] displayed a half-inhibitory concentration (IC50) in data set [1] of 90.9 µM. Further, the Activity result in data set [2] is “Non-toxic”. Turning to `C[C@@]12C[C@@]3(O)O[C@@H](O1)[C@]1(COC(=O)c4ccc(O)cc4)[C@H]3C[C@@]12O[C@@H]1O[C@H](COC(=O)c2ccc(O)cc2)[C@@H](O)[C@H](O)[C@H]1O` [MUDANPIOSIDE H], in data set [1], the IC50 is over 100 µM. In addition, in data set [2], the Activity entry is listed as “Non-toxic”. As for `C[C@@]12C[C@@]3(O)O[C@@H](O1)[C@]1(COC(=O)c4ccccc4)[C@@H]3C[C@]12O[C@@H]1O[C@H](COC(=O)c2ccccc2)[C@@H](O)[C@H](O)[C@H]1O` [BENZOYLPAEONIFLORIN], the 50% inhibitory concentration (IC50) in data set [1] is over 100 µM. Moreover, the Activity entry in data set [2] is listed as “Non-toxic”. For `C[C@@]12C[C@@]3(O)O[C@@H](O1)[C@]1(COC(=O)c4ccccc4)[C@H]3C[C@@]12O[C@@H]1O[C@H](COC(=O)c2ccccc2)[C@@H](O[C@@H]2O[C@H](CO)[C@@H](O)[C@H](O)[C@H]2O)[C@H](O)[C@H]1O` [PAEONIFLORIN B], in that order: 31.2 µM and “Non-toxic”.

In data set [1], `C[C@@]12C[C@@]3(O)O[C@@H](O1)[C@]1(COC(=O)c4ccccc4)[C@@H]3C[C@]12O[C@@H]1O[C@H](COC(=O)c2cc(O)c(O)c(O)c2)[C@@H](O)[C@H](O)[C@H]1O` [GALLOYLPAEONIFLORIN] had an IC50 of 36.1 µM. Further, in data set [2], the Activity entry is “Non-toxic”. In data set [1], `CO[C@]12C[C@]3(C)O[C@H](O1)[C@]1(COC(=O)c4ccccc4)[C@@H]2C[C@]13O[C@@H]1O[C@H](COC(=O)c2ccccc2)[C@@H](O)[C@H](O)[C@H]1O` registered a half-inhibitory concentration (IC50) of 41.9 µM. In addition, the Activity entry in data set [2] was “Non-toxic”. Consider `CO[C@]12C[C@]3(C)O[C@H](O1)[C@]1(COC(=O)c4ccc(O)cc4)[C@H]2C[C@@]13O[C@@H]1O[C@H](CO)[C@@H](O)[C@H](O)[C@H]1O`, for which the concentration for half-maximal inhibition (IC50) in data set [1] is over 100 µM. For the same compound, the Activity entry in data set [2] was “Non-toxic”.
